{"source": "patent US8466112B2", "about": "“Compositions comprising Ornithine Ketoglutarate (OKG)” (Cutech S.r.l., priority 2007, dated 2013)", "key": {"hair follicles [1]": {"test_system": "hair follicles", "assay": "Relative growth of hair follicles compared to control, OKG versus Ornithine and alpha-Ketoglutarate", "format": "cell-based, human", "conditions": "for Growth of hair follicles - elongation ± standard error, relative to control (100): after 6 days of cultivation", "protocol": "(§1) Human anagen hair follicles were isolated from scalp skin and transferred for cultivation in sterile 24 well plates using a modified Williams' Medium E. Cultivation took place for nine days, while the experimental treatment of the follicles started 24 hours from the beginning of the cultivation.\n(§2) Hair follicles taken from a single donor were selected for the experiments after 18 h of cultivation. Only those follicles showing a good vital stage and a growth of not less than 0.2 mm have been considered suitable to be maintained in culture. 4 groups were prepared comprising 9 follicles, plated at the density of 3 hair follicles/plate. […] The growth of the hair follicles was studied by microphotography and subsequently determined by image analysis. All the hair follicles were photographed every two days.\nIn order to show the superiority of OKG compared to Ornithine on one hand and alpha-Ketoglutarate on the other, the influence of these compounds on the metabolism of hair follicles was studied under the conditions as explained in Examples 1 and 2. […] Examples 3 and 4 are according to the invention, examples C1-C4 are shown for comparison."}, "[2]": {"test_system": "cells in the dermopapilla", "assay": "Number of proliferative (Ki-67) and apoptotic (Apoptag) cells in the dermopapilla", "format": "cell-based, human", "conditions": "after three days of cultivation", "protocol": "After three days of cultivation samples were taken in order to determine the relative number of cells being in the proliferative or apoptotic state. The cells in apoptotic state were determined using an Apoptag Fluorescein In-situ Apoptosis Detection Kit (Chemicon International cod. S7110), while those in proliferative state were marked with the antibody Ki-67 (monoclonal mouse anti-human Ki-67, clone MIB1, Dako Cytomation cod. M7240). The total number of cells in the dermopapilla was analysed by marking their nuclei by means of DAPI (4′, 6-diamidino-2-phenylindol dihydrochloride). The percentage of cells in the proliferative or apoptotic stage compared to the total number of cells was determined again by image analysis."}, "[3]": {"test_system": "Human anagen hair follicles", "assay": "Growth (elongation) of cultivated human hair follicles", "format": "cell-based", "protocol": "as §1, §2"}, "A 549 cells": {"test_system": "A 549 cells", "conditions": "disclosed in WO 06/075924 A1; cited from earlier work"}, "hair follicles [4]": {"test_system": "hair follicles", "assay": "Histological analysis of hair follicles (anagen/catagen phase)", "format": "cell-based, human", "conditions": "after 9 days of cultivation", "description": "The experiment according to Examples 1 and 2 was terminated after 9 days of cultivation. Subsequently, the hair follicles were subjected to a histological analysis by colouring with haematossilin and eosin in order to verify the morphological state of the dermopapilla."}}}
{"molecule": "O=C(O)CCC(=O)C(=O)O", "note": "[alpha-Ketoglutarate]", "values": [{"measurement": "Growth of hair follicles - elongation ± standard error, relative to control (100)", "setting": "hair follicles [1]; Conc. 0.001% b.w.", "result": "103.1 ± 3.1", "unit": "%"}, {"measurement": "Growth of hair follicles - elongation ± standard error, relative to control (100)", "setting": "hair follicles [1]; Conc. 0.01% b.w.", "result": "103.8 ± 3.8", "unit": "%"}]}
{"molecule": "Ornithine Ketoglutarate [OKG]", "values": [{"measurement": "Number of cells in Apoptotic stage ± standard error (of total cells)", "setting": "[2]; OKG 0.1% b.w., control 0.48%", "result": "0.17% ± 0.073"}, {"measurement": "Number of cells in Proliferative stage ± standard error (of total cells)", "setting": "[2]; OKG 0.1% b.w., control 10.74%", "result": "10.51% ± 0.17"}, {"measurement": "Effect on number of apoptotic cells (in words)", "setting": "[2]", "result": "significantly reduces the number of apoptotic cells"}, {"measurement": "Hair follicle stimulation compared to Ornithine and alpha-Ketoglutarate taken alone (in words)", "setting": "hair follicles [1]; 0.001 and 0.01% b.w., 6 days", "result": "superiority and synergistic effect"}, {"measurement": "Growth of hair follicles - elongation ± standard error, relative to control (100)", "setting": "hair follicles [1]; Conc. 0.001% b.w.", "result": "112.7 ± 3.1", "unit": "%"}, {"measurement": "Growth of hair follicles - elongation ± standard error, relative to control (100)", "setting": "hair follicles [1]; Conc. 0.01% b.w.", "result": "110.4 ± 4.0", "unit": "%"}, {"measurement": "Growth of hair follicles - elongation ± standard error", "setting": "[3]; OKG 0.005% b.w. in cultivation medium, day 1 of cultivation", "result": 0, "unit": "mm"}, {"measurement": "Growth of hair follicles - elongation ± standard error", "setting": "[3]; OKG 0.005% b.w. in cultivation medium, day 3 of cultivation", "result": "0.84 ± 0.022", "unit": "mm"}, {"measurement": "Growth of hair follicles - elongation ± standard error", "setting": "[3]; OKG 0.005% b.w. in cultivation medium, day 5 of cultivation", "result": "1.50 ± 0.078", "unit": "mm"}, {"measurement": "Growth of hair follicles - elongation ± standard error", "setting": "[3]; OKG 0.005% b.w. in cultivation medium, day 7 of cultivation", "result": "1.98 ± 0.155", "unit": "mm"}, {"measurement": "Growth of hair follicles - elongation ± standard error", "setting": "[3]; OKG 0.005% b.w. in cultivation medium, day 9 of cultivation", "result": "2.35 ± 0.253", "unit": "mm"}, {"measurement": "Growth of hair follicles - elongation ± standard error", "setting": "[3]; OKG 0.01% b.w. in cultivation medium, day 1 of cultivation", "result": 0, "unit": "mm"}, {"measurement": "Growth of hair follicles - elongation ± standard error", "setting": "[3]; OKG 0.01% b.w. in cultivation medium, day 3 of cultivation", "result": "0.88 ± 0.024", "unit": "mm"}, {"measurement": "Growth of hair follicles - elongation ± standard error", "setting": "[3]; OKG 0.01% b.w. in cultivation medium, day 5 of cultivation", "result": "1.63 ± 0.067", "unit": "mm"}, {"measurement": "Growth of hair follicles - elongation ± standard error", "setting": "[3]; OKG 0.01% b.w. in cultivation medium, day 7 of cultivation", "result": "2.25 ± 0.086", "unit": "mm"}, {"measurement": "Growth of hair follicles - elongation ± standard error", "setting": "[3]; OKG 0.01% b.w. in cultivation medium, day 9 of cultivation", "result": "2.77 ± 0.163", "unit": "mm"}, {"measurement": "Effect on growth of the hair follicles (in words)", "setting": "[3]; addition of OKG 0.005 to 0.01% b.w. versus control", "result": "significant increase in growth of the hair follicles"}, {"measurement": "Effect on proliferation of A 549 cells (in words)", "setting": "A 549 cells", "result": "stimulate the proliferation of A 549 cells"}, {"measurement": "Hair follicles in Catagen phase", "setting": "hair follicles [4]; OKG 0.1% b.w., control 44%", "result": 22, "unit": "%"}, {"measurement": "Hair follicles in Anagen phase", "setting": "hair follicles [4]; OKG 0.1% b.w., control 56%", "result": 78, "unit": "%"}, {"measurement": "Effect on decline to the catagen phase (in words)", "setting": "hair follicles [4]", "result": "significantly delayed the decline to the catagen phase"}]}
{"molecule": "NCCC[C@H](N)C(=O)O", "note": "[Ornithine]", "values": [{"measurement": "Growth of hair follicles - elongation ± standard error, relative to control (100)", "setting": "hair follicles [1]; Conc. 0.001% b.w.", "result": "105.1 ± 5.1", "unit": "%"}, {"measurement": "Growth of hair follicles - elongation ± standard error, relative to control (100)", "setting": "hair follicles [1]; Conc. 0.01% b.w.", "result": "102.1 ± 5.0", "unit": "%"}]}
